Experimental data from patent publication US12006330B2, “Substituted macrocyclic compounds and related methods of treatment” (Alkermes, Inc., priority 2020, dated 2024).

Experiments:
[1] = system: MDR1; experiment: MDCK-MDR1 permeability assay; assay type: in vitro ADME; conditions: dog, MDCK-MDR1, MDCK-MDR1 cells; for efflux ratio at 2 h, 3 μM: Papp B→A divided by Papp A→B, read-out: Efflux ratio (ER); for Papp A→B at 2 h, 3 μM: test compound 3 μM, 2 hours at 37 degrees C, apical to basolateral
In short: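 Receiver and donor compartments were analysed by LC-MS/MS after a 2 h incubation at 37 °C of 3 μM compound in HBSS on MDCK-MDR1 monolayers, run in both directions with Lucifer Yellow (100 μM) as integrity marker. Apparent permeability came from translocation rate, insert area and initial concentration; B→A/A→B Papp gave the efflux ratio, alongside percent recovery.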

[2] = Hepatocytes stability assay (human hepatocytes); assay type: in vitro ADME; conditions: both sexes, human, cryopreserved hepatocytes, cryopreserved human hepatocytes (pool of 50 mixed gender); 1 μM test compound; 1×10^6 cell/mL; 37 degrees C; read-out: CLint (μL/min/million cells)
In short: (§1)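 Compound at 1 μM (0.1% DMSO) was incubated with cryopreserved pooled human hepatocytes, 1×10^6 cells/mL in Krebs-Henseleit buffer, at 37 °C, sampled up to 240 min. Parent depletion by LC-MS/MS; half-life from first-order decay gave CLint, scaled to hepatic clearance by well-stirred model (fu assumed 1) and extraction ratio.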

[3] = system: human hepatocytes; experiment: Hepatocytes stability assay (human hepatocytes); assay type: in vitro ADME; conditions: human hepatocytes; scaled hepatic clearance divided by liver blood flow (well-stirred model, fu assumed unity)
In short: as §1

[4] = system: Sprague-Dawley rats; experiment: Assessment of wake promotion in Sprague-Dawley rats (EEG/EMG); assay type: in vivo, rat; conditions: male Sprague-Dawley rats; PO; 3 mpk; dosed at ZT5; 6-hour post-dose period
Protocol: Wake promotion was assessed using electroencephalography (EEG) and electromyography (EMG) in adult male Sprague-Dawley rats. All rats (Charles River Laboratories, Raleigh, NC, USA) were intraperitoneally implanted with telemetry devices (F50-EEE, Data Sciences International Inc., MN, USA) under isoflurane anesthesia. For EEG, stainless steel screws were implanted over frontal cortex and parietal cortex, and reference screws were placed over cerebellum. Additionally, an electrode was placed in neck muscle for EMG. Rats were given carprofen post-surgery and underwent a 7 to 10-day recovery period. Rats habituated to the experimental room for 7 days and were maintained on a 12-hour light-dark cycle.
EEG and EMG data were recorded using the DSI telemetry system and Ponemah software (Data Sciences International Inc., MN, USA). Sleep-wake stages were scored both manually and with Somnivore, a supervised machine learning software platform, in 10 second epochs. Records were visually inspected as needed post-processing.
All test compounds were dissolved in 5% DMSO and suspended in 95% saline with 0.5% methylcellulose and 0.5% tween. […] Unless otherwise indicated, all compounds were dosed orally. Recordings for each rat were initiated immediately after dosing and lasted for 6 hours post-dose.
Two key endpoints include wakefulness time and cortical activation time. Wakefulness time is derived from the sleep-wake stage analysis. Cortical activation time is based on the duration in which frontal gamma oscillatory activity (30-100 Hz), a key feature of wakefulness, was elevated relative to a pre-treatment baseline. Mean cortical activation time was computed relative to vehicle treatment for the 6-hour post-dose period.

[5] = target: T1, human orexin-2 receptor (OX2R) (Homo sapiens, UniProt O43614); experiment: Human OX2R IP1 assay; assay type: cell-based; conditions: T-Rex CHO cells stably overexpressing human OX2R; IP1 accumulation; 1 hr at 37 degrees C; mean EC50
T1 construct: expressed in transfected cells
T1 sequence (O43614 1-444): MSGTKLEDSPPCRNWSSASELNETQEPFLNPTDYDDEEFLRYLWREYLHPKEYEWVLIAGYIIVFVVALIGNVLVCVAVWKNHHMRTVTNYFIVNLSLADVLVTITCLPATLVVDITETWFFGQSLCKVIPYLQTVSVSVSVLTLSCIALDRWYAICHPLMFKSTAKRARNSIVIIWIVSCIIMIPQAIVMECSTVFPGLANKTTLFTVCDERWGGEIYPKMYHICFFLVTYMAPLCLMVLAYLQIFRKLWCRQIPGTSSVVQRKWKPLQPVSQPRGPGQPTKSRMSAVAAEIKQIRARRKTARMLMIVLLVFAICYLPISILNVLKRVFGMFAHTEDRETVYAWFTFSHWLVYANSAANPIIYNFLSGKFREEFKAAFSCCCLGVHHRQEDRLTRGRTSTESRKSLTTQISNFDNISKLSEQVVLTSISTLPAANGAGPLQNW
Protocol: T-Rex CHO cells stably overexpressing the human orexin-2 receptor (OX2R) were induced overnight with 1 μg/mL of doxycycline in a T225 flask. 24 hours post induction, cells were lifted with accutase and plated into a 384-well proxy plate at 30,000 cells/well. Cells were then treated with different test compounds in 1× stimulation buffer containing 10 mM Hepes, 1 mM CaCl2), 0.5 mM MgCl2, 4.2 mM KCl, 146 mM NaCl, 5.5 mM glucose, and 50 mM LiCl, pH 7.4, for 1 hr at 37 degrees C. Following incubation, the reaction was terminated by the addition of detection mix, which is composed of IP1-d2 and anti-IP1-cryptate diluted in lysis buffer as well as 1× stimulation buffer. The plates were allowed to incubate for 1 hour at room temperature and were then read in the EnVision® multimode plate reader, measuring inositol phosphate levels.
Cisbio IP1 is a cell-based functional assay quantifying the accumulation of inositol monophosphate (IP), a metabolite released as a result of orexin 2 receptor activation through the phospholipase C-Gq signaling pathway. This is a competitive immunoassay in which the IP1 produced by the cells upon receptor activation competes with the IP1 analog coupled to the d2 fluorophore (acceptor) for binding to an anti-IP1 monoclonal antibody labeled with Eu cryptate (donor). The measured HTRF-FRET based signal is inversely proportional to the IP1 concentration produced.
The EC50 values reported in Table 2 were obtained according to the human OX2R IP1 assay described above. Data are the mean EC50 values S.E.M. Reference Compound A is methyl (2R,3S)-3-((methylsulfonyl)amino)-2-(((cis-4-phenylcyclohexyl)oxy)methyl)-piperidine-1-carboxylate (Example 5 of PCT publication No. WO2017/135306). Reference Compound B is N-((2S,3S)-1-(2-hydroxy-2-methylpropanoyl)-2-((2,3′,5′-trifluorobiphenyl-3-yl)methyl)pyrrolidin-3-yl)methanesulfonamide (Example 483 of PCT publication No. WO2019/027058).

CC(C)S(=O)(=O)N[C@H]1CCCN2C(=O)COc3ncccc3C3CCC(CC3)OC[C@@H]12 (stereo in doubt) [Compound 15]
efflux ratio at 2 h, 3 μM [1]: 100 | Papp A→B at 2 h, 3 μM [1]: 0.34 ×10⁻⁶ cm/s | hepatocyte CLint at 1 μM [2]: 15 µL/min/1e6 cells | Extraction Ratio (ER) [3]: 0.69 | Mean cortical activation time (% vehicle treatment) [4]: 107.59 % vehicle treatment

O=C1COc2nccnc2[C@H]2CC[C@H](CC2)OCC2[C@@H](NS(=O)(=O)C3CC3)CCCN12 (stereo in doubt) [Compound 65]
efflux ratio at 2 h, 3 μM [1]: > 100 | Papp A→B at 2 h, 3 μM [1]: 0.1 ×10⁻⁶ cm/s | hepatocyte CLint at 1 μM [2]: < 1.9 µL/min/1e6 cells | Extraction Ratio (ER) [3]: <0.22 | Mean cortical activation time (% vehicle treatment) [4]: 121.28 % vehicle treatment

CS(=O)(=O)N[C@H]1CCCN2C(=O)COc3ccccc3[C@H]3CC[C@@H](OCC12)[C@H](O)C3 (stereo in doubt) [Compound 45]
EC50 [5]: 10 to 1000 nM | efflux ratio at 2 h, 3 μM [1]: > 5.3 | Papp A→B at 2 h, 3 μM [1]: < 0.14 ×10⁻⁶ cm/s | hepatocyte CLint at 1 μM [2]: < 1.9 µL/min/1e6 cells | Extraction Ratio (ER) [3]: <0.22

C[C@H](C(F)(F)F)S(=O)(=O)N[C@H]1CCCN2C(=O)COc3ccccc3C3CCC(CC3)OC[C@@H]12 (stereo in doubt) [Compound 23]
EC50 [5]: < 10 nM | efflux ratio at 2 h, 3 μM [1]: 87 | Papp A→B at 2 h, 3 μM [1]: 0.44 ×10⁻⁶ cm/s | hepatocyte CLint at 1 μM [2]: 30 µL/min/1e6 cells | Extraction Ratio (ER) [3]: 0.82

C[C@@H](C(F)(F)F)S(=O)(=O)N[C@H]1CCCN2C(=O)COc3ccccc3C3CCC(CC3)OC[C@@H]12 (stereo in doubt) [Compound 24]
EC50 [5]: < 10 nM | efflux ratio at 2 h, 3 μM [1]: 43 | Papp A→B at 2 h, 3 μM [1]: 0.65 ×10⁻⁶ cm/s | hepatocyte CLint at 1 μM [2]: 28 µL/min/1e6 cells | Extraction Ratio (ER) [3]: 0.81

Cc1ccnc2c1[C@H]1CC[C@H](CC1)OCC1[C@@H](NS(=O)(=O)C3CCOC3)CCCN1C(=O)CO2 (stereo in doubt) [Compound 89]
EC50 [5]: < 10 nM | efflux ratio at 2 h, 3 μM [1]: 49 | Papp A→B at 2 h, 3 μM [1]: 0.56 ×10⁻⁶ cm/s | hepatocyte CLint at 1 μM [2]: 12 µL/min/1e6 cells | Extraction Ratio (ER) [3]: 0.64

C[C@@H]1C[C@H](NS(C)(=O)=O)[C@@H]2CO[C@H]3CC[C@H](CC3)c3ccccc3OCC(=O)N12 [Compound 103]
EC50 [5]: 10 to 1000 nM | efflux ratio at 2 h, 3 μM [1]: 28 | Papp A→B at 2 h, 3 μM [1]: 1.4 ×10⁻⁶ cm/s | hepatocyte CLint at 1 μM [2]: 41 µL/min/1e6 cells | Extraction Ratio (ER) [3]: 0.86

CS(=O)(=O)N[C@H]1CCCN2C(=O)[C@@H](CO)Oc3ccccc3[C@H]3CC[C@H](CC3)OCC12 (stereo in doubt) [Compound 60]
EC50 [5]: < 10 nM | efflux ratio at 2 h, 3 μM [1]: > 100 | Papp A→B at 2 h, 3 μM [1]: 0.041 ×10⁻⁶ cm/s | hepatocyte CLint at 1 μM [2]: 3.7 µL/min/1e6 cells | Extraction Ratio (ER) [3]: 0.36

O=C1COc2ccccc2[C@H]2CC[C@H](CC2)OCC2[C@@H](NS(=O)(=O)CF)CCCN12 (stereo in doubt) [Compound 38]
EC50 [5]: < 10 nM | efflux ratio at 2 h, 3 μM [1]: 35 | Papp A→B at 2 h, 3 μM [1]: 1.32 ×10⁻⁶ cm/s | hepatocyte CLint at 1 μM [2]: 18 µL/min/1e6 cells | Extraction Ratio (ER) [3]: 0.73

C[C@@H]1CCN2C(=O)COc3ccccc3[C@H]3CC[C@H](CC3)OCC2[C@H]1NS(C)(=O)=O (mixture of isomers) [Compound 36]
EC50 [5]: < 10 nM | efflux ratio at 2 h, 3 μM [1]: > 100 | Papp A→B at 2 h, 3 μM [1]: 0.3 ×10⁻⁶ cm/s | hepatocyte CLint at 1 μM [2]: 17 µL/min/1e6 cells | Extraction Ratio (ER) [3]: 0.71

CC[C@H](C)S(=O)(=O)N[C@H]1CCCN2C(=O)COc3ccccc3C3CCC(CC3)OC[C@@H]12 (stereo in doubt) [Compound 21]
EC50 [5]: < 10 nM | efflux ratio at 2 h, 3 μM [1]: 52 | Papp A→B at 2 h, 3 μM [1]: 0.8 ×10⁻⁶ cm/s | hepatocyte CLint at 1 μM [2]: 36 µL/min/1e6 cells | Extraction Ratio (ER) [3]: 0.84

CC[C@@H]1Oc2ccccc2[C@H]2CC[C@H](CC2)OCC2[C@@H](NS(C)(=O)=O)CCCN2C1=O (stereo in doubt) [Compound 84]
EC50 [5]: < 10 nM | efflux ratio at 2 h, 3 μM [1]: 100 | Papp A→B at 2 h, 3 μM [1]: 0.43 ×10⁻⁶ cm/s | hepatocyte CLint at 1 μM [2]: 31 µL/min/1e6 cells | Extraction Ratio (ER) [3]: 0.82

O=C1COc2ccccc2[C@H]2CC[C@H](CC2)OCC2[C@@H](NS(=O)(=O)C3CCOC3)CCCN12 (stereo in doubt) [Compound 22]
EC50 [5]: < 10 nM | efflux ratio at 2 h, 3 μM [1]: > 100 | Papp A→B at 2 h, 3 μM [1]: 0.18 ×10⁻⁶ cm/s | hepatocyte CLint at 1 μM [2]: 13 µL/min/1e6 cells | Extraction Ratio (ER) [3]: 0.66

CC[C@H]1Oc2ccccc2[C@H]2CC[C@H](CC2)OCC2[C@@H](NS(C)(=O)=O)CCCN2C1=O (stereo in doubt) [Compound 85]
EC50 [5]: < 10 nM | efflux ratio at 2 h, 3 μM [1]: 97 | Papp A→B at 2 h, 3 μM [1]: 0.45 ×10⁻⁶ cm/s | hepatocyte CLint at 1 μM [2]: 37 µL/min/1e6 cells | Extraction Ratio (ER) [3]: 0.84

CC[C@@H](C)S(=O)(=O)N[C@H]1CCCN2C(=O)COc3ccccc3C3CCC(CC3)OC[C@@H]12 (stereo in doubt) [Compound 25]
EC50 [5]: < 10 nM | efflux ratio at 2 h, 3 μM [1]: 27 | Papp A→B at 2 h, 3 μM [1]: 0.62 ×10⁻⁶ cm/s | hepatocyte CLint at 1 μM [2]: 35 µL/min/1e6 cells | Extraction Ratio (ER) [3]: 0.84

CS(=O)(=O)N[C@H]1CCCN2C(=O)[C@H](CO)Oc3ccccc3[C@H]3CC[C@H](CC3)OCC12 (stereo in doubt) [Compound 61]
EC50 [5]: < 10 nM | efflux ratio at 2 h, 3 μM [1]: > 100 | Papp A→B at 2 h, 3 μM [1]: < 0.034 ×10⁻⁶ cm/s | hepatocyte CLint at 1 μM [2]: 6.9 µL/min/1e6 cells | Extraction Ratio (ER) [3]: 0.51
